# Experimental data taken from US20090012170A1, “TREATMENT OF SYMPTOMS OF MOTOR DYSFUNCTION” (priority 2005, published 2009).
# Tested on: PD patients
# Assay: Pooled analysis of three double blind, placebo-controlled studies and their open-label extensions: earlier vs. delayed start of entacapone adjunct to levodopa/DDC inhibitor
# Type: in vivo, human
# Description: A study was carried out to evaluate the effect of earlier vs. delayed start of entacapone adjunct to traditional levodopa/DDC inhibitor treatment on the long-term Parkinson's disease symptom control up to 5 years.
# Analysis of pooled data of three pivotal double blind, placebo-controlled studies, and their respective long-term open-label extension studies up to 5 years on entacapone adjunct to optimised levodopa/DDC inhibitor and other PD treatment.
# A total of 488 PD patients, of whom 269 were on entacapone and 219 on placebo during the 6-month double blind phase, continued with open entacapone treatment in the long-term extension phases up to 5 years. UPDRS III assessment and the mean daily levodopa dose were reported until the point when a minimum of 10 patients in each treatment arm was available, i.e. up to five years.
structure (smiles),measurement,setting,value
"CCN(CC)C(=O)/C(C#N)=C/c1cc(O)c(O)c([N+](=O)[O-])c1 [entacapone, (E)-2-cyano-3-(3,4-dihydroxy-5-nitrophenyl)-N-diethyl-2 propenamide]",decrease of mean daily levodopa dose after initiation of open entacapone,"delayed start group, comparable with the decrease in the earlier start group at the beginning of the double-blind phase, thereafter below baseline in both groups",about 70 mg
same,mean difference in UPDRS III over time between the earlier and delayed start treatment groups,"entacapone adjunct to levodopa/DDC inhibitor, earlier vs 6 months delayed start, up to 5 years, 95%CI [−3.01, −0.31], repeated measures analysis, p<0.05",−1.66
